Read-outs that look alike come from different tables or passages of the source.
What was measured:
[1] = target: Recombinant human MALT1/MLT protein (Homo sapiens (Human), UniProt Q9UDY8); experiment: Inhibitory effect on MALT1 enzyme activity (Ac-LRSR-AMC substrate, fluorescence 460 nm); format: biochemical; conditions: 10 nM FL MALT1, Ac-LRSR-AMC substrate, 50 min pre-incubation, 4 h reaction
Experimental: Ac-LRSR-AMC was used as the substrate to test the IC50 of the inhibitory activity of compounds on MALT1 enzyme activity at their Km concentration.
Ac-LRSR-AMC was used as the substrate which was digested by MALT1 to produce products, which produced fluorescence that could be detected at 460 nm. The highest concentration of the compound detected was 1000 nM, 3-fold dilution, a total of 11 concentrations (1000 nM-0.017 nM). The reaction system is 10 nM FL MALT1 protein, […] Ac-LRSR-AMC, 50 mM Tris pH 7.5, 0.6M Citrate, 1 mM DTT, 1 mM EDTA, 0.05% BSA and 1.5% DMSO. The compound and the enzyme were pre-incubated at room temperature for 50 min. The substrate was then added and the reaction was carried out for 4 h.
The original data (460 nm reading) was calculated according to the following formula to obtain the inhibition rate.
(§1) Log(inhibitor) vs. response—Variable slope (four parameters) in GraphPad Prism 6 was used to perform fitting equation analysis on compound concentration and corresponding inhibition rate, the curve was fit and compound IC50 value was obtained.
(§2) The fitting calculation equation is Y=Bottom+(Top−Bottom)/(1+10^((Log IC50−X)*HillSlope))

[2] = target: MALT1 protease activity in TMD8 cells (substrate BCL-10) (Homo sapiens (Human), UniProt Q9UDY8); experiment: Intracellular MALT1 protease activity detection (BCL-10 ELISA in TMD8 cells); format: cell-based; conditions: undigested BCL-10 by ELISA, 30 min compound then 2 h stimulation cocktail, read-out: Bcl10 TMD8 IC50
Experimental: By detecting the digestion level of the substrate BCL-10 by MALT1 in TMD8 cells, the inhibitory effect of the compound on MALT1 protease activity in the cellular environment was tested.
The ELISA sandwich method was used to detect the content of undigested BCL-10 protein in cells and determine the inhibitory effect of compounds on intracellular MALT1 protease activity. The highest concentration of the compound detected was 10000 nM, 3-fold dilution, a total of 9 concentrations (10000 nM-1.5 nM). Cells were plated at an appropriate density. Compounds of corresponding concentrations were first added for action for 30 min, and then eBioscience cell stimulation cocktail was added to stimulate the cells for 2 h. Cell lysate was then collected. The cell lysate was added to the assay plate previously coated with recombinant BCL-10 antibody (Abcam, #Ab33905) and incubated at 4° C. overnight. The next day, BCL-10 detection antibody (Santacruz, #Sc-5273HRP) was added and incubated for 2 h, TMB substrate was used for color development for about 30 min, then the color development was terminated, and a microplate reader was used for detection.
2) Curve fitting: Log(inhibitor) vs. response—Variable slope (four parameters) in GraphPad Prism 6 was used to perform fitting equation analysis on compound concentration and corresponding inhibition rate, the curve was fit and compound IC50 value was obtained.
as §2

[3] = Pharmacokinetics of oral administration in Balb/C mice; format: in vivo; conditions: 30 mg/kg, P.O., plasma
Experimental: Balb/C mice were used as test animals to study the pharmacokinetic behavior of the compound in the plasma of mice after oral administration at a dose of 30 mg/kg.
3 Balb/C mice (3/example), male, from Shanghai Jiesijie Experimental Animal Co., Ltd., animal production license number (SCXK (Shanghai) 2013-0006 N0.311620400001794).
3 Balb/C mice, male; p.o. respectively at a dose of 30 mg/kg and an administration volume of 10 mL/kg after the mice were fasted overnight.
Before and after administration of mice, 0.1 mL of blood was collected from the orbit at 0, 0.5, 1, 2, 4, 6, 8 and 24 h, and placed in EDTA-K2 test tubes, which was centrifuged at 6000 rpm at 4° C. for 6 min to separate plasma which was stored at −80° C.
• 1) 160 μL of acetonitrile was added to 40 μL of plasma sample for precipitation, and same was mixed and centrifuged at 3500×g for 5 to 20 min. • 2) 100 μL of the treated supernatant solution was taken and subjected to LC/MS/MS to analyze the concentrations of the test compounds.
• Liquid phase conditions: Shimadzu LC-20AD pump • Mass spectrometry conditions: AB Sciex API 4000 mass spectrometer • Chromatographic column: Phenomenex Gemiu 5 um C18 50×4.6 mm • Mobile phase: liquid A is 0.1% aqueous formic acid solution, liquid B is acetonitrile • flow rate: 0.8 mL/min • Elution time: 0-4.0 min, the eluent is as follows:
The main pharmacokinetic parameters were calculated using WinNonlin 8.2.

Caco-2 cells [4] = test system: Caco-2 cells
Experimental: (§3) The purpose of this experiment is to test the bidirectional permeability of the compound through the Caco-2 cell model and evaluate whether the compound is transported by efflux transporters.
(§4) Liquid chromatography-mass spectrometer, centrifuge, vortexer, pipette, 96-well test plate (HTS Transwell Plate), acetonitrile solution containing internal standard, Caco-2 cells (ATCC), Hank's balance solution (HBSS), fluorescent yellow (LY), dimethyl sulfoxide (DMSO).
(§5) 108 μL of transport buffer (HBSS containing 10 μM of the example compound) was added to the administration end of A to B. • b. 300 μL of transport buffer (HBSS containing DMSO) was added to the receiving end of A to B. • c. 300 μL of transport buffer (HBSS containing 10 μM example compound) was added to the administration end of A to B. • d. 108 μL of transport buffer (HBSS containing DMSO) was added to the receiving end of A to B. • e. incubation was performed for 90 min. • d. a sample was taken, processed and detected with mass spectrometry.
(§6) • Instruments: Liquid Chromatography; • Chromatographic column: Waters XSelect HSS T3 2.5 μm (2.1×50 mm); • Mobile phase: Phase A: 0.1% formic acid in pure water; Phase B: 0.1% formic acid in acetonitrile.
(§7) • Instruments: AP16500+liquid chromatography-mass spectrometer; • The ion source is electrospray ionization source (ESI); • The detection method is positive ion detection;
(§8) The scanning method is selected reaction monitoring (MRM).

OCI-Ly3 cells = experiment: Inhibition of proliferation of OCI-Ly3 cells (CellTiter-Glo); format: cell-based, human; conditions: 96 h incubation, read-out: Inhibition test of proliferation of OCI-Ly3 cells IC50
Experimental: The compound's inhibitory effect on the proliferation of TMD8 and OCI-Ly3 cells was evaluated through cell proliferation inhibition experiments.
The compound's inhibitory effect on the proliferation of TMD8 and OCI-Ly3 cells was detected by the CellTiter-Glo method. The highest concentration of the compound detected was 1000 nM, 3-fold dilution, a total of 9 concentrations (1000 nM-0.15 nM). After the cells were plated at an appropriate density, compounds were added the next day and incubated for 96 h before detection using the CellTiter-Glo Luminescent detection kit.
as §1, §2

[5] = test system: OCI-LY3 cell subcutaneous xenograft tumor; experiment: Tumor inhibition in OCI-LY3 subcutaneous xenograft NOG mouse model of human diffuse large B-cell lymphoma; format: in vivo; conditions: NOG mice, 30 mg, BID × 4 weeks, oral
Experimental: The efficacy of test drugs was evaluated in OCI-LY3 mouse subcutaneous tumor model of human diffuse large B-cell lymphoma
• 1. Animal: NOG mice, female, 6-8 weeks old, weighing 18-22 grams, a total of 65 mice were needed. Provided by Beijing Vital River Laboratory Animal Technology Co., Ltd. or other qualified suppliers. • 2. Cell: Human diffuse large B-cell lymphoma OCI-LY3 cells were cultured in vitro as monolayers and conventional digestion treatment with trypsin-EDTA was carried out twice a week for passage. When the cell confluence was 80%-90% and the number reached the required number, cells were collected, counted, and inoculated. • 3. Grouping for vaccination: Cells (5×10^6 cells+Matrigel/0.2 ml) were inoculated subcutaneously into each mouse. The growth of animals and transplanted tumors were observed regularly. When the tumor grew to a volume of about 150-200 mm^3, the tumor volume of each mouse was calculated, and the mice were divided into random groups according to tumor volume and body weight. The calculation formula of tumor volume was V=0.5a×b^2, wherein a and b represented the long and short diameters of the tumor, respectively. • 4. Administration: According to the grouping results, the test drug was started to be administered (administration method: oral administration; Administration volume: 10 mL/kg; Administration frequency: 2 times/day; Administration cycle: 28 days; Vehicle: 10% solutol HS15-0.25% CMC-Na). Tumors were measured and weighed twice a week after starting administration of test drugs. • 5. Animals were euthanized after the experiment. • 6. Data processing: The tumor inhibitory efficacy of the compound was evaluated by TGI (%) or relative tumor proliferation rate T/C (%). TGI (%) reflects the tumor growth inhibition rate. Calculation of TGI (%): TGI (%)=[(1−(average tumor volume at the end of administration in a treatment group−average tumor volume at the beginning of administration in the treatment group))/(average tumor volume at the end of administration in the solvent control group−average tumor volume at the beginning of administration in the solvent control group)]×100%.
Relative tumor proliferation rate T/C (%): The calculation formulas are as follows: T/C %=TRTV/CRTV×100% (TRTV: RTV of treatment group; CRTV: RTV of negative control group). The relative tumor volume (RTV) was calculated based on the results of tumor measurement. The calculation formula is RTV=Vt/V0, where V0 is the average tumor volume measured at grouping for administration (i.e. d0), Vt is the average tumor volume at a certain measurement, and TRTV and CRTV take the data on the same day.
After the experiment, the tumor weight was measured, and the T/Cweight percentage was calculated. Tweight and Cweight represented the tumor weight of the administration group and the vehicle control group, respectively.
Remarks: The data in parentheses indicate the tumor volume corresponding to the vehicle group (i.e., the control group) at the corresponding time in this example.

Caco-2 cells [6] = experiment: Caco-2 bidirectional permeability test
Experimental: as §3, §4, §5, §6, §7, §8

Chain of Recombinant human MALT1/MLT protein (Q9UDY8 whole entry): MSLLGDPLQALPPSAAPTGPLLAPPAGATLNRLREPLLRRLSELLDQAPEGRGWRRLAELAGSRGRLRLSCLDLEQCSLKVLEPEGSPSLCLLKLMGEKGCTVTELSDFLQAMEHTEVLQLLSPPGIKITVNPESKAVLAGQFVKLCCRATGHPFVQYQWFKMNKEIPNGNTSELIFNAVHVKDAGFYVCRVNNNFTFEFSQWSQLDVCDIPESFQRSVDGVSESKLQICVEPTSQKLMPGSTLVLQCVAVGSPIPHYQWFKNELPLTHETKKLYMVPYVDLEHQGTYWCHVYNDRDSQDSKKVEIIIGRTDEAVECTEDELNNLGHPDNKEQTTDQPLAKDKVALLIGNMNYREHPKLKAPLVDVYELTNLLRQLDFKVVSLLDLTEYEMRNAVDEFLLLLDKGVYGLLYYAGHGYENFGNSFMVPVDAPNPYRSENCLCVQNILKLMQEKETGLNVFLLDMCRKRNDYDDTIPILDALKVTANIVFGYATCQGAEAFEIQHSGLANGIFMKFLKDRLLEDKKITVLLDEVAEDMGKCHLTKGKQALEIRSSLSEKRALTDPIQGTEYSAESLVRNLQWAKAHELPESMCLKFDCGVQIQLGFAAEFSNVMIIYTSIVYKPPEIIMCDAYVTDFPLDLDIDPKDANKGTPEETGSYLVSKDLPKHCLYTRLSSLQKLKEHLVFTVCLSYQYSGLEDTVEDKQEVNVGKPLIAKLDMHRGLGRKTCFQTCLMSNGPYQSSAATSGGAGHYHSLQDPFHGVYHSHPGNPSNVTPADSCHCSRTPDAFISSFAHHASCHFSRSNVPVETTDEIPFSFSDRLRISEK
Chain of MALT1 protease activity in TMD8 cells (substrate BCL-10) (Q9UDY8 whole entry): as above

SMILES	IC50 [1]	IC50 [2]	AUC0-∞ [3]	AUC(0-t) [3]	Cmax [3]	MRT [3]	T1/2 [3]	Tmax [3]	Papp A − B (Caco-2 cells [4]; Caco-2)	Papp B − A (Caco-2 cells [4]; Caco-2)	Papp(B − A)/Papp(A − B) (Caco-2 cells [4]; human, Caco-2, 90 min, 10 μM)	IC50 (OCI-Ly3 cells)	TGI (%) Day 28 [5]	Weight Day 28 [5]	ΔT/ΔC(%) Day 28 [5]	Tumor volume (Mean ± SD) Day 28 ([5]; vehicle group 1274 ± 82)	Papp A − B (Caco-2 cells [6]; Caco-2, 10 μM, 90 min, A to B)	Papp B − A (Caco-2 cells [6]; Caco-2, 10 μM, 90 min, B to A)	Papp(B − A)/Papp(A − B) (Caco-2 cells [6]; Caco-2 efflux ratio)
O=C(Nc1ccnc(C(F)(F)F)c1)c1cnn(-c2ccc3c4c(cccc24)C(=O)N3)c1C(F)(F)F [Example 3]	105 nM	83 nM	341,390 ng/mL*hr	330,088 ng/mL*h	23,733 ng/mL	7.4 h	4.7 h	4.0 h	1.57 10^−6 cm · s^−1	10.24 10^−6 cm · s^−1	6.52								
O=C(Nc1ccnc(C(F)(F)F)c1)c1cnn(-c2ccc3c4c(cccc24)C(=O)N3)c1C(F)(F)F [Example 27]	162 nM	51 nM	1,584,433 ng/mL*hr	1,130,746 ng/mL*h	71,267 ng/mL	18.7 h	13.1 h					804 nM	93.04%	20.34 ± 0.78	19.83%	230 ± 50 (1274 ± 82) mm^3	4.21 10^−6 cm · s^−1	11.52 10^−6 cm · s^−1	2.74
